Experimental data: patent US20260184687A1, “DIHYDROINDENE DERIVATIVES AS MALT1 INHIBITORS” (C4X Discovery Limited, priority 2022, published 2026)

Assays:
[1] = tested on: IL-2 release from stimulated Jurkat cells; assay: Human IL-2 Release Phenotypic Assay (Assay 3); type: cell-based; conditions: Jurkat cells (clone E6-1), 200 ng/mL PMA + 300 ng/mL ionomycin, IL-2 by ELISA
Procedure, shortened: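 Jurkat E6-1 cells in RPMI1640/10% FBS were seeded at 50 000 cells/well and incubated overnight at 37° C. Half-log compound dilutions (0.5% final DMSO) were added for 30 min, then cells were stimulated with 200 ng/mL PMA + 300 ng/mL ionomycin for 48 h. IC50 came from a 4-parameter non-linear regression fit.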

FL hMALT1 enzyme = target: T1, FL hMALT1 enzyme (Homo sapiens, UniProt Q9UDY8); assay: biochemical;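 further: Cell-free protease assay: enzyme preincubated with compound 30 min at room temperature, then cleavage of fluorogenic Ac-LVSR-AMC substrate (100 µM) tracked by fluorescence (ex 360/em 460 nm)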
T1 sequence (Q9UDY8 1-824): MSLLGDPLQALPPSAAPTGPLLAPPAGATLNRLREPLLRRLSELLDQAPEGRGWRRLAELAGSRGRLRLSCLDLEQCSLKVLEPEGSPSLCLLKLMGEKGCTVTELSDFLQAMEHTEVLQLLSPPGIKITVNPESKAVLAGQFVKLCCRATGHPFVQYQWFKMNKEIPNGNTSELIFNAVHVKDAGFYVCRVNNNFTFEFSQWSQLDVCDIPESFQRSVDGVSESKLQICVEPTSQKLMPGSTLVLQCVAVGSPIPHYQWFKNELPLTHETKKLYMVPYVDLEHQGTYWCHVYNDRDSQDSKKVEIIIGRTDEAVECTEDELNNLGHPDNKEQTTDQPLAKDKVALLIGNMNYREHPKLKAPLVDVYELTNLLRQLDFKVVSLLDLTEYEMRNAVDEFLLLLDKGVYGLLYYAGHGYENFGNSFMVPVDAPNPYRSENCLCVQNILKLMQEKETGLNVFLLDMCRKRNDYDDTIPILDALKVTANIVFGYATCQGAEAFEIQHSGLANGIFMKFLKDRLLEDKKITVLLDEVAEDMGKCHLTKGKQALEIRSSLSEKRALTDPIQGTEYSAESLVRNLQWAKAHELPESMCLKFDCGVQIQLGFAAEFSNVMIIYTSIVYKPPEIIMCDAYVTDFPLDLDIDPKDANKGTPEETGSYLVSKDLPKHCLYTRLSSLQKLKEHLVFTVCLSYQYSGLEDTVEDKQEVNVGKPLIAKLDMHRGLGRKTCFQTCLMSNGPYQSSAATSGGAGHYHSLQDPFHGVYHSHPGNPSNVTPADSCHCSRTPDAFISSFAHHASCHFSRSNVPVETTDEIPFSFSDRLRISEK
Procedure: MALT1 protease activity was assessed in vitro by measuring the cleavage of a fluorogenic tetrapeptide substrate.
For a higher sensitivity assay, commercially available FL hMALT1 enzyme (Abcam, 1-10 nM) was incubated with substrate (Ac-LVSR-AMC, 100 μM) in reaction buffer comprising 50 mM HEPES (pH7.0), 25 mM KCl, 0.1% (v/v) CHAPS, 1 mM TCEP and 0.7 M sodium citrate.
Test compounds dissolved in DMSO were dispensed into assay plates (384-well, black, shallow ProxiPlates). 7 μl enzyme solution was added and incubated at room temperature for 30 minutes to allow compound binding to occur. 2 μl substrate solution was then added and the fluorescence (excitation 360 nm, emission 460 nm) read every 15 minutes using a suitable plate reader. Final assay DMSO concentration was 1%. […] IC50 values were calculated using GraphPad Prism using a 4-parameter non-linear regression curve fit.

Compound	IC50 ([1]; 48 hours) [nM]	IC50 (FL hMALT1 enzyme) [nM]	IC50 ([1]; Homo sapiens, Jurkat, 48 h) [nM]
CN(C(=O)C1CC2(CCC(=O)N2)C1)[C@@H](c1ccc(NC2Cc3ccc(Cl)c(Cl)c3C2)cn1)C(F)(F)F (single isomer, unassigned) [Example 341]	100	15	
CN(C(=O)C1CCS(=O)(=O)CC1)[C@@H](c1ccc(NC2Cc3cc(Cl)cc(F)c3C2)cn1)C(F)(F)F (single isomer, unassigned) [Example 270]		81	270
CN(C(=O)C1CNC(=O)O1)[C@@H](c1ccc(N[C@@H]2Cc3ccccc3C2(C)C)cn1)C(F)(F)F (single isomer, unassigned) [Example 111]	650	52	
CN1CCCC(C(=O)N(C)[C@@H](c2ccc(NC3Cc4ccccc4C3(C)C)cn2)C(F)(F)F)C1 (single isomer, unassigned) [Example 130]	1080	120	
CN(C(=O)C1CCS(=O)(=O)CC1)[C@@H](c1ccc(NC2Cc3cccc(C(F)(F)F)c3C2)nc1)C(F)(F)F (single isomer, unassigned) [Example 281]		14	460
CN(C(=O)[C@@H]1CNC(=O)C1)[C@@H](c1ccc(NC2Cc3ccc(Cl)c(C4CC4)c3C2)cn1)C(F)(F)F (single isomer, unassigned) [Example 328]		18	240
CN(C(=O)C1CCS(=O)(=O)CC1)[C@@H](c1ccc(NC2Cc3ccc(Br)cc3C2)cn1)C(F)(F)F (single isomer, unassigned) [Example 284]		85	490
CN1CCC(C(=O)N(C)[C@@H](c2ccc(NC3Cc4ccccc4C3(C)C)cn2)C(F)(F)F)CC1 (single isomer, unassigned) [Example 132]	1370	250	
CC(=O)N[C@@H]1CC[C@H](C(=O)N(C)[C@@H](c2ccc(N[C@H]3Cc4ccccc4C3(C)C)cn2)C(F)(F)F)C1 [Example 187, (1,3-cis)-3-Acetamido-N—((S)-1-(5-(((S)-1,1-dimethyl-2,3-dihydro-1H-inden-2-yl)amino)pyridin-2-yl)-2,2,2-trifluoroethyl)-N-methylcyclobutane-1-carboxamide]		94	450
CN(C(=O)C1COCC(=O)N1)[C@@H](c1ccc(NC2Cc3ccccc3C2(C)C)cn1)C(F)(F)F (single isomer, unassigned) [Example 164]		33	150
CCc1cccc2c1CC(Nc1ccc([C@H](N(C)C(=O)C3CCS(=O)(=O)CC3)C(F)(F)F)nc1)C2 (single isomer, unassigned) [Example 198]		78	1200
CN(C(=O)[C@H]1C[C@@]2(CCN2C)C1)[C@@H](c1ccc(NC2Cc3ccccc3C2(C)C)cn1)C(F)(F)F (single isomer, unassigned) [Example 156]	1720	170	
CN(C(=O)C1CCS(=O)(=O)CC1)[C@@H](c1ccc(N[C@H]2Cc3ccc(Cl)cc3C2)cn1)C(F)(F)F (single isomer, unassigned) [Example 199]		73	290
CN(C(=O)C1CCNCC1)[C@@H](c1ccc(NC2Cc3ccccc3C2(C)C)cn1)C(F)(F)F (single isomer, unassigned) [Example 146]		110	480
CCN(C(=O)C1CCS(=O)(=O)CC1)[C@@H](c1ccc(NC2Cc3ccccc3C2(C)C)cn1)C(F)(F)F (single isomer, unassigned) [Example 188]	650	47	
Cc1c(Cl)ccc2c1CC(Nc1ccc([C@H](N(C)C(=O)C3CCS(=O)(=O)CC3)C(F)(F)F)nc1)C2 (single isomer, unassigned) [Example 372]		19	130
CN(C(=O)C1CC2(CNC(=O)OC2)C1)[C@@H](c1ccc(NC2Cc3ccccc3C2(C)C)nc1)C(F)(F)F (single isomer, unassigned) [Example 174]		70	890
CN(C(=O)C1CN(S(C)(=O)=O)C1)[C@@H](c1ccc(NC2Cc3ccccc3C2(C)C)cn1)C(F)(F)F (single isomer, unassigned) [Example 209]		52	380
CN(C(=O)C1CCS(=O)(=O)CC1)[C@@H](c1ccc(NC2Cc3cccc(Cl)c3C2)cn1)C(F)(F)F (single isomer, unassigned) [Example 263]		61	510

Compound	IC50 ([1]; 48 hours) [nM]	IC50 (FL hMALT1 enzyme) [nM]	IC50 ([1]; Homo sapiens, Jurkat, 48 h) [nM]
CN(C(=O)C1C2CS(=O)(=O)CC21)[C@@H](c1ccc(NC2Cc3ccccc3C2(C)C)cn1)C(F)(F)F (single isomer, unassigned) [Example 215]	630	88	
CN(C(=O)C1CNC(=O)O1)[C@@H](c1ccc(N[C@@H]2Cc3ccccc3C2(C)C)cn1)C(F)(F)F (single isomer, unassigned) [Example 109]	900	760	
CN(C(=O)C1CCS(=O)(=O)C1)[C@@H](c1ccc(NC2Cc3ccc(Cl)c(Cl)c3C2)cn1)C(F)(F)F (single isomer, unassigned) [Example 360]	110	30	
CN(C(=O)C1CCN(S(C)(=O)=O)CC1)[C@@H](c1ccc(NC2Cc3ccc(Cl)c(Cl)c3C2)cn1)C(F)(F)F (single isomer, unassigned) [Example 325]		9	35
CN1CCCC(C(=O)N(C)[C@@H](c2ccc(NC3Cc4ccccc4C3(C)C)cn2)C(F)(F)F)C1 (single isomer, unassigned) [Example 129]		210	1800
CN(C(=O)[C@H]1C[C@H](N(C)C)C1)[C@@H](c1ccc(NC2Cc3ccccc3C2(C)C)cn1)C(F)(F)F (single isomer, unassigned) [Example 113]	490	67	
CN(C(=O)C1CNC(=O)O1)[C@@H](c1ccc(N[C@@H]2Cc3ccccc3C2(C)C)cn1)C(F)(F)F (single isomer, unassigned) [Example 108]	900	150	
CN(C(=O)[C@H]1CCC(=O)NC1)[C@@H](c1ccc(N[C@H]2Cc3ccc(Cl)cc3C2)cn1)C(F)(F)F [Example 297, (S)—N—((S)-1-(5-(((S)-5-Chloro-2,3-dihydro-1H-inden-2-yl)amino)pyridin-2-yl)-2,2,2-trifluoroethyl)-N-methyl-6-oxopiperidine-3-carboxamide]		170	360
CN(C(=O)C1CN2CCC1CC2)[C@@H](c1ccc(NC2Cc3ccccc3C2(C)C)cn1)C(F)(F)F (single isomer, unassigned) [Example 140]		180	1270
CN1C(=O)CCC1C(=O)N(C)[C@@H](c1ccc(N[C@H]2Cc3ccccc3C2(C)C)cn1)C(F)(F)F (single isomer, unassigned) [Example 226]	250	39	
CN(C(=O)C1CCNC(=O)C1)[C@@H](c1ccc(NC2Cc3ccccc3C2(C)C)cn1)C(F)(F)F (single isomer, unassigned) [Example 116]	510	68	
CN(C(=O)C1CCS(=O)(=O)CC1)[C@@H](c1ccc(NC2Cc3ccc(F)c(Cl)c3C2)cn1)C(F)(F)F (single isomer, unassigned) [Example 265]		32	220
CN(C(=O)C1CCNC(=O)C1)[C@@H](c1ccc(NC2Cc3ccccc3C2(C)C)cn1)C(F)(F)F (single isomer, unassigned) [Example 117]	2060	240	
CN(C(=O)[C@H]1CNC(=O)C1)[C@@H](c1ccc(NC2Cc3ccc(Cl)c(Cl)c3C2)nc1)C(F)(F)F (single isomer, unassigned) [Example 347]		16	41
CN1CCC(C(=O)N(C)[C@@H](c2ccc(NC3Cc4ccccc4C3(C)C)cn2)C(F)(F)F)CC1 (single isomer, unassigned) [Example 133]	600	150	
CN(C(=O)C1CCS(=O)(=O)CC1)[C@@H](c1ccc(NC2Cc3ccc(Cl)c(F)c3C2)cn1)C(F)(F)F (single isomer, unassigned) [Example 277]		43	200
CN(C(=O)C1CC2(CCC(=O)N2)C1)[C@@H](c1ccc(NC2Cc3ccc(Cl)c(Cl)c3C2)cn1)C(F)(F)F (single isomer, unassigned) [Example 343]	360	77	
COCCN1CCC12CC(C(=O)N(C)[C@@H](c1ccc(NC3Cc4ccccc4C3(C)C)cn1)C(F)(F)F)C2 (single isomer, unassigned) [Example 243]		86	640
